Assay results from patent US7528136B2, “Prolinamide derivatives as NK3 antagonists” (Hoffmann-La Roche Inc., priority 2007, dated 2009).

tested on: schizophrenia; assay: not given; conditions: phase II trial; altered behavior, delusion, hallucinations, extreme emotions, excited motor activity, incoherent speech; cited from earlier work

Compound | activity on positive symptoms of schizophrenia
CC(=O)N(C)C1(c2ccccc2)CCN(CCC[C@]2(c3ccc(Cl)c(Cl)c3)CCCN(C(=O)c3ccccc3)C2)CC1 [SR 142,801, Osanetant] | active

same assay, conditions: phase II trial; depression, anhedonia, social isolation, memory and attention deficits; cited from earlier work

Compound | activity in the treatment of negative symptoms
CC(=O)N(C)C1(c2ccccc2)CCN(CCC[C@]2(c3ccc(Cl)c(Cl)c3)CCCN(C(=O)c3ccccc3)C2)CC1 [SR 142,801, Osanetant] | inactive

biological target: T1, recombinant human NK3 receptor (Homo sapiens, UniProt P29371); assay: [3H]SR142801 competition binding assay; conditions: [3H]SR142801, membranes from HEK293 cells transiently expressing hNK3; read-out: Data (hNK-3 receptor affinity)
T1 construct: expressed in transfected cells; host or cells: HEK293 cells (transient expression), membranes
T1 sequence (P29371 1-465): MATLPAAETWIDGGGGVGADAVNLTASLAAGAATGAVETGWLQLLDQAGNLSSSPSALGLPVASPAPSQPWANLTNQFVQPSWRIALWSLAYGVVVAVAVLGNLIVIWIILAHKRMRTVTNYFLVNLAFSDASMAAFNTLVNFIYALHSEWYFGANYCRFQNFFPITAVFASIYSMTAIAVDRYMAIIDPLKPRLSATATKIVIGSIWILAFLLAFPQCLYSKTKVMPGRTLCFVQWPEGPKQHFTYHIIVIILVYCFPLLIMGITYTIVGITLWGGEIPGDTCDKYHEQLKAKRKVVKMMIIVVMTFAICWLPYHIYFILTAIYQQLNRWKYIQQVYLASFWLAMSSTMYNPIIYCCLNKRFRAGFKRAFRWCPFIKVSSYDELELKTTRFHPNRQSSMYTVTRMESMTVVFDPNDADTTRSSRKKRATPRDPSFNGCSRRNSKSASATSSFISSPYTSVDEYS
Experimental: [^3H]SR142801 Competition Binding Assay
hNK3 receptor binding experiment were performed using [^3H]SR142801 (Catalog No. TRK1035, specific activity: 74.0 Ci/mmol, Amersham, GE Healthcare UK limited, Buckinghamshire, UK) and membrane isolated from HEK293 cells transiently expressing recombinant human NK3 receptor. After thawing, the membrane homogenates were centrifuged at 48,000×g for 10 min at 4° C., the pellets were resuspended in the 50 mM Tris-HCl, 4 mM MnCl2, 1 μM phosphoramidon, 0.1% BSA binding buffer at pH 7.4 to a final assay concentration of 5 μg protein/well. For inhibition experiments, membranes were incubated with [^3H]SR142801 at a concentration equal to KD value of radioligand and 10 concentrations of the inhibitory compound (0.0003-10 μM) (in a total reaction volume of 500 μl) for 75 min at room temperature (RT). At the end of the incubation, membranes were filtered onto unitfilter (96-well white microplate with bonded GF/C filter preincubated 1 h in 0.3% PEI+0.3% BSA, Packard BioScience, Meriden, Conn.) with a Filtermate 196 harvester (Packard BioScience) and washed 4 times with ice-cold 50 mM Tris-HCl, pH 7.4 buffer. Nonspecific binding was measured in the presence of 10 μM SB222200 for both radioligands. The radioactivity on the filter was counted (5 min) on a Packard Top-count microplate scintillation counter with quenching correction after addition of 45 μl of microscint 40 (Can berra Packard S. A., Zürich, Switzerland) and shaking for 1 h. Inhibition curves were fitted according to the Hill equation: y=100/(1+(x/IC50)^nH), where nH=slope factor using Excel-fit 4 software (Microsoft). IC50 values were derived from the inhibition curve and the affinity constant (Ki) values were calculated using the Cheng-Prussoff equation Ki=IC50/(1+[L]/KD) where [L] is the concentration of radioligand and KD is its dissociation constant at the receptor, derived from the saturation isotherm. All experiments were performed in duplicate and the mean±standard error (SEM) of the individual Ki values was calculated.

Compound | Ki [nM]
N#Cc1ccccc1N1CCN(C(=O)[C@@H]2C[C@@H](NCc3ccc(F)cc3F)CN2Cc2ccccc2)CC1 [Example 88, 2-{4-[(2S,4R)-1-Benzyl-4-(2,4-difluoro-benzylamino)-pyrrolidine-2-carbonyl]-piperazin-1-yl}-benzonitrile] | 97
CN(Cc1cc(C(F)(F)F)cc(C(F)(F)F)c1)[C@H]1C[C@@H](C(=O)N2CCN(c3ccccc3C#N)CC2)N(Cc2ccccc2)C1 [Example 32, 2-(4-{(2S,4S)-1-Benzyl-4-[(3,5-bis-trifluoromethyl-benzyl)-methyl-amino]-pyrrolidine-2-carbonyl}-piperazin-1-yl)-benzonitrile] | 64.4
COc1cc(CN[C@H]2C[C@@H](C(=O)N3CCN(c4ccccc4C#N)CC3)N(Cc3ccccc3)C2)cc(OC)c1 [Example 34, 2-{4-[(2S,4S)-1-Benzyl-4-(3,5-dimethoxy-benzylamino)-pyrrolidine-2-carbonyl]-piperazin-1-yl}-benzonitrile] | 44
N#Cc1ccccc1N1CCN(C(=O)[C@@H]2C[C@H](NCc3cc(C(F)(F)F)ccc3Cl)CN2Cc2ccccc2)CC1 [Example 38, 2-{4-[(2S,4S)-1-Benzyl-4-(2-chloro-5-trifluoromethyl-benzylamino)-pyrrolidine-2-carbonyl]-piperazin-1-yl}-benzonitrile] | 58
N#Cc1ccccc1N1CCN(C(=O)[C@@H]2C[C@H](NCc3ccc(Cl)c(Cl)c3)CN2Cc2ccccc2)CC1 [Example 48, 2-{4-[(2S,4S)-1-Benzyl-4-(3,4-dichloro-benzylamino)-pyrrolidine-2-carbonyl]-piperazin-1-yl}-benzonitrile] | 29
O=C([C@@H]1C[C@H](NCc2ccc(F)cc2F)CN1Cc1ccccc1)N1CCN(c2cccc(C(F)(F)F)c2)CC1 [Example 5, [(2S,4S)-1-Benzyl-4-(2,4-difluoro-benzylamino)-pyrrolidin-2-yl]-[4-(3-trifluoromethyl-phenyl)-piperazin-1-yl]-methanone] | 37.6
N#Cc1ccccc1N1CCN(C(=O)C2CC(NCc3ccc(F)cc3F)CN2Cc2cccc(F)c2)CC1 (stereo not shown) [Example 54, 2-{4-[4-(2,4-Difluoro-benzylamino)-1-(3-fluoro-benzyl)-pyrrolidine-2-carbonyl]-piperazin-lyl}-benzonitrile] | 47
COc1ccccc1N1CCN(C(=O)[C@@H]2C[C@H](NCc3ccc(F)cc3F)CN2Cc2ccccc2)CC1 [Example 12, [(2S,4S)-1-Benzyl-4-(2,4-difluoro-benzylamino)-pyrrolidin-2-yl]-[4-(2-methoxy-phenyl)-piperazin-1-yl]-methanone] | 23.5
O=C([C@@H]1C[C@H](NCc2ccc(F)cc2F)CN1Cc1ccccc1)N1CCN(c2ccc(F)cc2)CC1 [Example 8, [(2S,4S)-1-Benzyl-4-(2,4-difluoro-benzylamino)-pyrrolidin-2-yl]-[4-(4-fluoro-phenyl)-piperazin-1-yl]-methanone] | 64.8
CN(Cc1cc(C(F)(F)F)cc(C(F)(F)F)c1)[C@H]1C[C@@H](C(=O)N2CCN(c3cccc(C(F)(F)F)c3)CC2)N(Cc2ccccc2)C1 [Example 62, {(2S,4S)-1-Benzyl-4-[(3,5-bis-trifluoromethyl-benzyl)-methyl-amino]-pyrrolidin-2-yl}-[4-(3-trifluoromethyl-phenyl)-piperazin-1-yl]-methanone] | 39
COc1cc2c(cc1OC)CN(C(=O)[C@@H]1C[C@H](NCc3ccc(F)cc3F)CN1Cc1ccccc1)CC2 [Example 13, [(2S,4S)-1-Benzyl-4-(2,4-difluoro-benzylamino)-pyrrolidin-2-yl]-(6,7-dimethoxy-3,4-dihydro-1H-isoquinolin-2-yl)-methanone] | 39.4
O=C([C@@H]1C[C@@H](NCc2ccc(F)cc2F)CN1Cc1ccccc1)N1CCN(c2cccc(C(F)(F)F)c2)CC1 [Example 87, [(2S,4R)-1-Benzyl-4-(2,4-difluoro-benzylamino)-pyrrolidin-2-yl]-[4-(3-trifluoromethyl-phenyl)-piperazin-1-yl]-methanone] | 52
N#Cc1ccccc1N1CCN(C(=O)[C@@H]2C[C@H](NCc3ccccc3C(F)(F)F)CN2Cc2ccccc2)CC1 [Example 36, 2-{4-[(2S,4S)-1-Benzyl-4-(2-trifluoromethyl-benzylamino)-pyrrolidine-2-carbonyl]-piperazin-1-yl}-benzonitrile] | 94.8
O=C([C@@H]1C[C@H](NCc2ccc(F)cc2F)CN1Cc1ccccc1)N1CCN(c2ccccc2)CC1 [Example 7, [(2S,4S)-1-Benzyl-4-(2,4-difluoro-benzylamino)-pyrrolidin-2-yl]-(4-phenyl-piperazin-1-yl)-methanone] | 63
N#Cc1ccccc1N1CCN(C(=O)[C@@H]2C[C@H](NCc3ccc(F)cc3F)CN2Cc2ccccc2)CC1 [Example 1, 2-{4-[(2S,4S)-1-Benzyl-4-(2,4-difluoro-benzylamino)-pyrrolidine-2-carbonyl]-piperazin-1-yl}-benzonitrile] | 12.2
O=C([C@@H]1C[C@H](NCc2ccc(F)cc2F)CN1Cc1ccccc1)N1CCN(c2ccccc2Cl)CC1 [Example 10, [(2S,4S)-1-Benzyl-4-(2,4-difluoro-benzylamino)-pyrrolidin-2-yl]-[4-(2-chloro-phenyl)-piperazin-1-yl]-methanone] | 56.7
N#Cc1ccccc1N1CCN(C(=O)[C@@H]2C[C@H](NCc3cccc(Cl)c3)CN2Cc2ccccc2)CC1 [Example 40, 2-{4-[(2S,4S)-1-Benzyl-4-(3-chloro-benzylamino)-pyrrolidine-2-carbonyl]-piperazin-1-yl}-benzonitrile] | 71
N#Cc1ccccc1N1CCN(C(=O)[C@@H]2C[C@H](NCc3ccc(F)c(Cl)c3)CN2Cc2ccccc2)CC1 [Example 45, 2-{4-[(2S,4S)-1-Benzyl-4-(3-chloro-4-fluoro-benzylamino)-pyrrolidine-2-carbonyl]-piperazin-1-yl}-benzonitrile] | 27.9
N#Cc1ccccc1N1CCN(C(=O)[C@@H]2C[C@H](NCc3cccc(Cl)c3F)CN2Cc2ccccc2)CC1 [Example 49, 2-{4-[(2S,4S)-1-Benzyl-4-(3-chloro-2-fluoro-benzylamino)-pyrrolidine-2-carbonyl]-piperazin-1-yl}-benzonitrile] | 48
CN(Cc1cc(C(F)(F)F)cc(C(F)(F)F)c1)[C@H]1C[C@@H](C(=O)N2CCN(c3cccc(C(F)(F)F)c3)CC2)N(Cc2cccc(Cl)c2)C1 [Example 68, [(2S,4S)-4-[(3,5-Bis-trifluoromethyl-benzyl)-methyl-amino]-1-(3-chloro-benzyl)-pyrrolidin-2-yl]-[4-(3-trifluoromethyl-phenyl)-piperazin-1-yl]-methanone] | 41.2
